Laboratory results: patent US5534498A, “Trypsin inhibitors” (Corvas International, Inc., priority 1993, dated 1996)
Non-standard residues stand in square brackets, D forms with d. Residues, ends and D or L forms follow the SMILES beside them. *: point of attachment. Boc = CC(C)(C)OC(=O)*

Assays:
[1] = target: bovine and human pancreatic trypsin; experiment: Potency: determination of inhibitor constant Ki against trypsin (S-2222 substrate, Dixon plot); format: biochemical; settings: 37° C., TBS pH 7.4, 15 min preincubation, read-out: Ki For Peptide Aldehydes Against Trypsin
Procedure: The potency and specificity of the compounds of the present invention are determined by in vitro assay methods well known in the art. […] Specifically, the inhibitor constant, Ki, of the compounds can be determined by the method of Dixon, Biochem. J. 55:170 (1953). The specificity is assessed by determination of the concentration, IC50, of compound required to give 50% inhibition of the enzymatic activity of the coagulation enzymes, kallikrein, factor XIa, factor VIIa, factor Xa, thrombin; the fibrinolysis enzymes, plasmin, tissue plasminogen activator (tPA), and urokinase (UK), and the anticoagulation enzyme, protein C. Specificity is found when the concentration of compound giving 50% inhibition of trypsin is low relative to the concentration required to give like inhibition of the other enzymes.
Enzyme activity was determined using as substrate S-2222 [N-benzoyl-L-isoleucyl-L-glutamyl-glycyl-L-arginine-p-nitroanilide hydrochloride where glutamyl side chain is 50% carboxylic acid and 50% methyl ester], purchased from Kabi Diagnostica. The substrate was made up in deionized water prior to use.
A 96-well microtiter plate was prepared for use in the assay by incubating each well with 300 μL of 1% bovine serum albumin (in deionized water) for 30 minutes at 37° C., and washing three times with deionized water.
To each well was added 50 μL TBS (0.1M Tris, 0.14M NaCl, pH 7.4), 50 μL 2.5 nM trypsin and 50 μL peptide aldehyde in TBS or TBS alone. After incubating for 15 minutes at 37° C., 50 μL of S-2222 (at 37° C.) at a specified concentration was added to each well. After mixing, the rate of substramte turnover at 37° C. was measured for 30 minutes at 405 nm (generation of p-nitroaniline). The initial S-2222 concentrations in the assay mixture were 0.45, 0.23, 0.11, 0.056, and 0.028 mM.
Ki was determined graphically using a Dixon plot, as described in Dixon, Biochem. J. 55:170 (1953).

[2] = target: T1, human kallekrein (Homo sapiens, UniProt P03952); experiment: Kallikrein assay (S-2302 substrate); format: biochemical; settings: for IC50: 30 min preincubation, room temperature, tested 0.025-25 μM, Inact. = no inhibition at highest concentration; for Calculated % Selectivity Kallikrein: [IC50 for Trypsin/IC50 for other enzyme]×100, lower = more trypsin selective
T1 construct: 50 μL of 4 to 9 nM human kallekrein
Procedure: (§1) The specificity of the peptide aldehydes (8 through 12) was determined in vitro by measurement of their IC50 against other enzymes involved in hemostasis. A specific concentration of enzyme and its substrate were challenged with varying concentrations of inhibitor. […] Specific assay procedures used are presented below.
(§2) 96-well microtiter plates were prepared for use in these assays by incubating each well with 300 μL 1% bovine serum albumin (in deionized water) for 30 minutes at 37° C., then washing three times with deionized water.
(§3) The substrate was made up in deionized water prior to use.

[3] = target: T2, human Factor XIa (Homo sapiens, UniProt P03951); experiment: Factor XIa assay (S-2366 substrate); format: biochemical; settings: for IC50: 30 min preincubation, room temperature, tested 0.025-25 μM, Inact. = no inhibition at highest concentration; for Calculated % Selectivity XIa: [IC50 for Trypsin/IC50 for other enzyme]×100, lower = more trypsin selective
T2 construct: 50 μL of 5 nM human Factor XIa
Procedure: as §1, §2, §3

[4] = target: T3, Factor VIIa:rTF complex (Homo sapiens, UniProt P08709); experiment: Factor VIIa assay (S-2288 substrate); format: biochemical; settings: for IC50 / IC50 VIIA: 30 min preincubation, room temperature, tested 0.025-25 μM, Inact. = no inhibition at highest concentration; for Calculated % Selectivity VIIa: [IC50 for Trypsin/IC50 for other enzyme]×100, lower = more trypsin selective
T3 construct: 2.5 ml 400 nMhuman Factor VIIa
Procedure: (§4) The specificity of the peptide aldehydes (8 through 12) was determined in vitro by measurement of their IC50 against other enzymes involved in hemostasis. A specific concentration of enzyme and its substrate were challenged with varying concentrations of inhibitor. IC50 is that concentration of inhibitor giving 50% inhibition of substrate turnover, under the assay conditions. Specific assay procedures used are presented below.
as §2
Enzyme activity was determined using as substrate, S-2288 [D-isoleucyl-L-prolyl-L-arginine-p-nitroanilide dihydrochloride], purchased from Kabi Diagnostica. The substrate was made up in deionized water prior to use.
Both solutions were then incubated for 30 minutes at room temperature before use in the assay.
The assay was run by combining in appropriate wells 50 μL inhibitor in TBS or TBS alone and 100 μL of Factor VIIa:rTF complex or background control, incubating this mixture for 30 minutes at room temperature, adding 50 μL of 2 mM S-2288, incubating for an additional 30 to 60 minutes at room temperature, then reading the absorbance of the wells at 405 nm on a microtiter plate reader set with background substraction at 650 nm.

[5] = target: T4, human Factor Xa (Homo sapiens, UniProt P00742); experiment: Factor Xa assay (Pefachrome Xa substrate); format: biochemical; settings: for Calculated % Selectivity Xa: [IC50 for Trypsin/IC50 for other enzyme]×100, lower = more trypsin selective
T4 construct: 50 μL 30 nM human Factor Xa
Procedure: as §1, §2
Enzyme activity was determined using as substrate, Pefachrome Xa [N-methoxycarbonyl-D-cyclohexylalanyl-L-glycyl-L-arginine p-niroanilide acetate], purchased from Centerchem, Inc. The substrate was made up in deionized water prior to use.

[6] = target: T5, bovine thrombin (Bos taurus, UniProt P00735); experiment: Thrombin assay (S-2238 substrate); format: biochemical; settings: for Calculated % Selectivity Thrombin: [IC50 for Trypsin/IC50 for other enzyme]×100, lower = more trypsin selective
T5 construct: 50 μL 20 nM bovine thrombin
Procedure: as §4, §2
Enzyme activity was determined using as substrate, S-2238 [D-phenylalanyl-L-pipecolyl-L-arginine-p-nitroanilide dihydrochloride], purchased from Kabi Diagnostica. The substrate was made up in deionized water prior to use.
(§5) The assay was run by combining in appropriate wells 50 μL TBS and 50 μL inhibitor in TBS or TBS alone and 50 μL 20 nM bovine thrombin (or TBS as background control), incubating this mixture for 30 minutes at room temperature, adding 50 μL 1 mM S-2238, incubating for an additional 30 minutes at room temperature, then reading the absorbance of the wells at 405 nm on a microtiter plate reader set with background substraction at 650 nm.

[7] = target: T6, Activated human Protein C (Homo sapiens, UniProt P04070); experiment: Protein C assay (Pefachrome PC substrate); format: biochemical; settings: for Calculated % Selectivity Protein C: [IC50 for Trypsin/IC50 for other enzyme]×100, lower = more trypsin selective
T6 construct: from tissue
Procedure: as §1, §2
Enzyme activity was determined using as substrate, Pefachrome PC [δ-carbobenzoloxy-D-lysyl-L-prolyl-L-arginine-p-nitroanilide], purchased from Centerchem, Inc. The substrate was made up in deionized water prior to use. Protac used to activate Protein C was obtained from American Diagnostics.

[8] = target: recombinant tissue plasminogen activator (Homo sapiens, UniProt P00750); experiment: Tissue plasminogen activator assay (S-2288 substrate); format: biochemical; settings: for IC50 tPA / IC50: 30 min preincubation, room temperature, tested 0.025-25 μM, Inact. = no inhibition at highest concentration; for Calculated % Selectivity tPA: [IC50 for Trypsin/IC50 for other enzyme]×100, lower = more trypsin selective
Procedure: as §1, §2, §3

[9] = target: T7, human urokinase (Homo sapiens, UniProt P00749); experiment: Urokinase assay (S-2444 substrate); format: biochemical; settings: for Calculated % Selectivity UK: [IC50 for Trypsin/IC50 for other enzyme]×100, lower = more trypsin selective
T7 construct: 50 μL of 270 U/mL human urokinase
Procedure: as §4, §2
Enzyme activity was determined using as substrate S-2444 [L-pyroglutamyl-L-glycyl-L-arginine-p-nitroanilide hydrochloride], purchased from Kabi Diagnostica. The substrate was made up in deionized water prior to use.
as §5, with “μL” for “μL TBS and 50 μL”, “of 270 U/mL human urokinase” for “20 nM bovine thrombin”, “control) and 50 μL TBS,” for “control),”, “S-2444,” for “S-2238,”

[10] = target: T8, bovine trypsin (Bos taurus, UniProt P00760); experiment: Trypsin assay, IC50 (S-2222 substrate); format: biochemical; settings: for IC50: 30 min preincubation, room temperature, tested 0.025-25 μM; for Calculated % Selectivity Trypsin: trypsin relative to itself (reference, 100 by definition)
T8 sequence (P00760 24-246): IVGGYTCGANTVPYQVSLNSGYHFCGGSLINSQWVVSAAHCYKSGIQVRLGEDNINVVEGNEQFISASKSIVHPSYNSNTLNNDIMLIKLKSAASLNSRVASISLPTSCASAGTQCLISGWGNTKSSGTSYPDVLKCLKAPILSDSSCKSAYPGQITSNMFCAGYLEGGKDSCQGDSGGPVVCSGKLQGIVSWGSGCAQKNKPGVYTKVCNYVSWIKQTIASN
Procedure: as §1, §2, §3

[11] = target: plasmin (Homo sapiens, UniProt P00747); experiment: Plasmin assay (S-2251 substrate); format: biochemical; parameters: 50 μL 25 nM human plasmin; settings: for IC50: 30 min preincubation, room temperature, tested 0.025-25 μM, Inact. = no inhibition at highest concentration; for Calculated % Selectivity Plasmin: [IC50 for Trypsin/IC50 for other enzyme]×100, lower = more trypsin selective
Procedure: as §1, §2, §3

[12] = system: acute pancreatitis induced in animal models; settings: literature reports; cited from earlier work
[13] = 30 min preincubation, room temperature, tested 0.025-25 μM, Inact. = no inhibition at highest concentration

T2 sequence (P03951 388-625 limits assumed): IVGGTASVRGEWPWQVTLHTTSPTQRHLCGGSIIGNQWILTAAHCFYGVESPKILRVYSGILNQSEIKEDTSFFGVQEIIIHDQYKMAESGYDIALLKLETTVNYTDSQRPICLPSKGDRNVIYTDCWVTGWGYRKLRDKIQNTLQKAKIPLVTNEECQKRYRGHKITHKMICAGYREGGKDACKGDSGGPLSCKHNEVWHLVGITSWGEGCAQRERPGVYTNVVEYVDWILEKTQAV
T2 sequence (P03951 19-387 partner limits assumed): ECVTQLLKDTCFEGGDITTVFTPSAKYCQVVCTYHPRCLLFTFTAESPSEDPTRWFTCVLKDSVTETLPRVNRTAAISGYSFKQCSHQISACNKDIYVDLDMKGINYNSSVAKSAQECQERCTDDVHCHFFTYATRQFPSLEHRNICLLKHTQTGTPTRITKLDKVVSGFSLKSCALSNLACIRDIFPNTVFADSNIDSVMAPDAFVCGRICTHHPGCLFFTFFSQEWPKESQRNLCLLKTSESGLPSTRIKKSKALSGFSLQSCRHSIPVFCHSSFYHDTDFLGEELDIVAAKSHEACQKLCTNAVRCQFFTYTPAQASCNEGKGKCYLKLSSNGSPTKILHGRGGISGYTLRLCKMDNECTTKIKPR
T6 sequence (P04070 212-461 limits assumed): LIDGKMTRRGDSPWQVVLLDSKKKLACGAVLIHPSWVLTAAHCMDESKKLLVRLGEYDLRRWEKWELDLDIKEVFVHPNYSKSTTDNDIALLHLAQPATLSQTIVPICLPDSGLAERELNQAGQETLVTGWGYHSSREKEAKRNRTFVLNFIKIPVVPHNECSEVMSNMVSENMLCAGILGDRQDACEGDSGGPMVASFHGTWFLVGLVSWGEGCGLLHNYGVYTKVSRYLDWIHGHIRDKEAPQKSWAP
T6 sequence (P04070 43-197 partner limits assumed): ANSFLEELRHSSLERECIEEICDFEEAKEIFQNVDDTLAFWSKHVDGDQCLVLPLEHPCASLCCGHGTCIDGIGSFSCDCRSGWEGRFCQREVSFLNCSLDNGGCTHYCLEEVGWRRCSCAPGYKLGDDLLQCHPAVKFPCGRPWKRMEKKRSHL
T4 sequence (P00742 235-488 limits assumed): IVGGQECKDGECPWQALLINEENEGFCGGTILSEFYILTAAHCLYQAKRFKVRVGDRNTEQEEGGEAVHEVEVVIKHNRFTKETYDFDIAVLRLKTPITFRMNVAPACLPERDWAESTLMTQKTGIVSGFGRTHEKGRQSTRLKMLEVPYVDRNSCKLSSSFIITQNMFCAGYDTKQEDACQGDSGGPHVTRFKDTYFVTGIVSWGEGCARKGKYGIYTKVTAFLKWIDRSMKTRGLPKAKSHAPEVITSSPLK
T4 sequence (P00742 41-179 partner limits assumed): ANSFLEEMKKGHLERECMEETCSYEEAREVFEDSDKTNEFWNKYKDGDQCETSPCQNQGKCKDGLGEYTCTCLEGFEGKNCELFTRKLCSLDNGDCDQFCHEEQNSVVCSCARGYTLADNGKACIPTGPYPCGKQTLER
Sequence of plasmin (P00747 581-810 limits assumed): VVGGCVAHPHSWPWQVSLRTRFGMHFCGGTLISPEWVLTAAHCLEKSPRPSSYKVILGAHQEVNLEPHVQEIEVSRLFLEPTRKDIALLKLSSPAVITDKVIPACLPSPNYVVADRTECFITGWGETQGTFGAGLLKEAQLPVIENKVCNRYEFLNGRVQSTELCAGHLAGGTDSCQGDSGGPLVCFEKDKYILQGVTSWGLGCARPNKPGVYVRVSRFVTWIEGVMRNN
Sequence of plasmin (P00747 97-580 partner limits assumed): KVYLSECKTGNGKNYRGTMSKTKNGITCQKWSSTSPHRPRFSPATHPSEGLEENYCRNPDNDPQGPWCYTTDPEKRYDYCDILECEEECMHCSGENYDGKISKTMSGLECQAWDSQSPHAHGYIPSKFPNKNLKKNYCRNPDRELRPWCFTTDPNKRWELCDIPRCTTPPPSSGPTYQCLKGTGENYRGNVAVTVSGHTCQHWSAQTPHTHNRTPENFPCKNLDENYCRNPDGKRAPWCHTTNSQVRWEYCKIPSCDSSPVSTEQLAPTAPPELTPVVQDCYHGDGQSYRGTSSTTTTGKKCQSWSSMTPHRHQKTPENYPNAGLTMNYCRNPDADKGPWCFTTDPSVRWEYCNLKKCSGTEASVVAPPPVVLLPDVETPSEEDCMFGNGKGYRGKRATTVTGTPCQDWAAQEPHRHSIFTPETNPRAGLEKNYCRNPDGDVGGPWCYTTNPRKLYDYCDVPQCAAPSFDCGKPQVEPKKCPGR
Sequence of recombinant tissue plasminogen activator (P00750 36-562): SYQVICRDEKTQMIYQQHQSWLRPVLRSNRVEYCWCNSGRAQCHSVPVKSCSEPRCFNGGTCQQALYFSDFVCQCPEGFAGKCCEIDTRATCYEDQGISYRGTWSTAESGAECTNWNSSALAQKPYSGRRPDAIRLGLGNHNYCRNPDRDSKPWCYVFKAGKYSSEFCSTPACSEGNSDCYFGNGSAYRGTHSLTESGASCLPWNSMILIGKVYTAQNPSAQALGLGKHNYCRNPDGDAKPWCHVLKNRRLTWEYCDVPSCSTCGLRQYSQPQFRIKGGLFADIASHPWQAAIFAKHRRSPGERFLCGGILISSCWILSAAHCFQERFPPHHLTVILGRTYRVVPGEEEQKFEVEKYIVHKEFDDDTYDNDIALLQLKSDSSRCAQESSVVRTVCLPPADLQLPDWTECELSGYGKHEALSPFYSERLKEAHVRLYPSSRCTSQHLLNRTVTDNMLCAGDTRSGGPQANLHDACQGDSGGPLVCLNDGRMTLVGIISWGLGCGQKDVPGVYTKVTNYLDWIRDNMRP
T1 sequence (P03952 391-638 limits assumed): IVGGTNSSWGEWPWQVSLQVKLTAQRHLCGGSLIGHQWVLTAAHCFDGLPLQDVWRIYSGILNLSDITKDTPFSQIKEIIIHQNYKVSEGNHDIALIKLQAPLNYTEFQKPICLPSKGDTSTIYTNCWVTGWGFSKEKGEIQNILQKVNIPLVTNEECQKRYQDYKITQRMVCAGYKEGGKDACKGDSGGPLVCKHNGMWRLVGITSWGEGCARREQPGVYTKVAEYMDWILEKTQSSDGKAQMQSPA
T1 sequence (P03952 20-390 partner limits assumed): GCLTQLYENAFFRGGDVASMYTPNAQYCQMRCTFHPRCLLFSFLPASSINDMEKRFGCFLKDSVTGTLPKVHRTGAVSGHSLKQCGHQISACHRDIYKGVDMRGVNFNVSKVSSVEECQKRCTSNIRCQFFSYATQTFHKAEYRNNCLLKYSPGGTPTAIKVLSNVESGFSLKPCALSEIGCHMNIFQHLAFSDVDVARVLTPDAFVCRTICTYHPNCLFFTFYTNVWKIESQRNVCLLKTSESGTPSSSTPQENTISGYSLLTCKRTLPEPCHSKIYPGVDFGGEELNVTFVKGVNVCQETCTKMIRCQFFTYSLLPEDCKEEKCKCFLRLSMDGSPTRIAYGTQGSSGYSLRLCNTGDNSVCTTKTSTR
T3 sequence (P08709 213-466 limits assumed): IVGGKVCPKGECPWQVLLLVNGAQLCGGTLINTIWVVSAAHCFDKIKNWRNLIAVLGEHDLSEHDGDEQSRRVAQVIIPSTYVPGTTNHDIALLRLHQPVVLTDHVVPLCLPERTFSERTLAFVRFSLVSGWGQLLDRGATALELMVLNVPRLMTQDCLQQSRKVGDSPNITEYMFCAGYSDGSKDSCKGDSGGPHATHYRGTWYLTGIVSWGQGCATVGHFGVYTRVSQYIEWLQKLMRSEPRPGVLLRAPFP
T3 sequence (P08709 61-212 partner limits assumed): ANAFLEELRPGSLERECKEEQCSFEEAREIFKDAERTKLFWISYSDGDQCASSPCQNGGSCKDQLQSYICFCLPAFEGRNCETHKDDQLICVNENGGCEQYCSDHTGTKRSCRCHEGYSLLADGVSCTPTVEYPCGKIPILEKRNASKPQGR
T3 sequence (P13726 33-295 partner): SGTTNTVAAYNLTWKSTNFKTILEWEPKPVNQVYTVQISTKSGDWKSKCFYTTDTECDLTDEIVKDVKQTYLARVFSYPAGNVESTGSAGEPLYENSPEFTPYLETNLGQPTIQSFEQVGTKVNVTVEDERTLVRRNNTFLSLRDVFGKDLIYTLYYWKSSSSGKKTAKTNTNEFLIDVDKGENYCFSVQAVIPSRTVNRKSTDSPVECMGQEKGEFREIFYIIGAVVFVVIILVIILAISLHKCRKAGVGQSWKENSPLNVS

| Compound | IC50 [2] | Calculated % Selectivity Kallikrein [2] | IC50 [3] | Calculated % Selectivity XIa [3] | IC50 [4] | Calculated % Selectivity VIIa [4] | Calculated % Selectivity Xa [5] | IC50 [6, 13] | Calculated % Selectivity Thrombin [6] | Calculated % Selectivity Protein C [7] | Calculated % Selectivity tPA [8] | IC50 [9, 13] | Calculated % Selectivity UK [9] | IC50 [10] | Calculated % Selectivity Trypsin [10] | IC50 [11] | Calculated % Selectivity Plasmin [11] | IC50 [5, 13] | IC50 [7, 13] | IC50 [8] | further results |
| --- | --- | --- | --- | --- | --- | --- | --- | --- | --- | --- | --- | --- | --- | --- | --- | --- | --- | --- | --- | --- | --- |
| CC(C)(C)OC(=O)N[C@@H](CCC(=O)O)C(=O)N1CCC[C@H]1C(=O)N[C@H](C=O)CCCNC(=N)N [Compound 8, N-t-butyloxycarbonyl-L-Glu-L-Pro-L-argininal] (Boc-Glu-Pro-Arg-aldehyde) | 6 µM | 0.10% | 4 µM | 0.15% | > 25 µM | < 0.02% | 0% | 14 µM | 0.04% | 0% | 0% | 9 µM | 0.07% | 0.006 µM | 100% | 0.6 µM | 1% | – | – | – | Ki [1]: 0.0014 µM; IC50 Xa [5, 13]: Inact.; IC50 Protein C [7, 13]: Inact.; IC50 tPA [8]: Inact. |
| CC(C)COC(=O)NC(CC(=O)O)C(=O)N1CCCC1C(=O)NC(C=O)CCCN=C(N)N [Compound 10, N-isobutyloxycarbonyl-L-Asp-L-Pro-L-argininal] | 8 µM | < 0.3% | 13 µM | < 0.19% | – | 0% | < 1.3% | 9 µM | < 0.28% | < 0.1% | < 0.1% | > 25 µM | < 0.1% | < 0.025 µM | 100% | 1.2 µM | < 2% | 2 µM | > 25 µM | > 25 µM | IC50 VIIA [4]: Inact. |
| N=C(N)NCCC[C@@H](C=O)NC(=O)[C@@H]1CCCN1C(=O)[C@H](CC(=O)O)NC(=O)OC12CC3CC(CC(C3)C1)C2 [Compound 11, N-adamantyloxycarbonyl-L-AsP-L-Pro-L-argininal] | 2 µM | < 1.3% | 6 µM | < 0.42% | > 25 µM | < 0.1% | < 0.83% | 10 µM | < 0.25% | < 0.1% | < 0.1% | 19 µM | < 0.1% | < 0.025 µM | 100% | 1.1 µM | < 2% | 0.3 µM | > 25 µM | > 25 µM | Ki [1]: 0.0002 µM |
| CC(C)(C)OC(=O)N[C@H](CC(=O)O)C(=O)N1CCC[C@H]1C(=O)N[C@H](C=O)CCCNC(=N)N [Compound 12, N-t-buyloxycarbonyl-D-Asp-L-Pro-L-argininal] (Boc-[dD]-Pro-Arg-aldehyde) | > 25 µM | < 0.34% | > 25 µM | < 0.34% | – | 0% | < 0.34% | – | 0% | < 0.3% | < 0.3% | 17 µM | 0.5% | 0.084 µM | 100% | 1.2 µM | 7% | > 25 µM | > 25 µM | > 25 µM | Ki [1]: 0.045 µM; IC50 VIIA [4]: Inact.; IC50 Thrombin [6, 13]: Inact. |
| CN(C)C(=O)COC(=O)Cc1ccc(OC(=O)c2ccc(NC(=N)N)cc2)cc1.CS(=O)(=O)O [Foy-305, camostate] | – | – | – | – | – | – | – | – | – | – | – | – | – | – | – | – | – | – | – | – | efficacy in the treatment of acute pancreatitis induced in animal models [12]: effective to varying degrees |
| N=C(N)c1ccc2cc(OC(=O)c3ccc(N=C(N)N)cc3)ccc2c1 [Futhan, 6-amidino-2-naphthyl-4-guanidino benzoate dimethanesulfonate, reference compound] | < 0.025 µM | – | < 0.025 µM | – | 1.2 µM | – | – | 0.21 µM | – | – | – | – | – | < 0.025 µM | – | – | – | 6 µM | 0.084 µM | 0.37 µM | efficacy in the treatment of acute pancreatitis induced in animal models [12]: effective |
| CC(=O)N[C@@H](CC(C)C)C(=O)N[C@@H](CC(C)C)C(=O)N[C@H](C=O)CCCNC(=N)N [Leupeptin, reference compound] | 4 µM | – | 11 µM | – | > 25 µM | – | – | 20 µM | – | – | – | – | – | 1.7 µM | – | 8 µM | – | 25 µM | > 25 µM | – | IC50 tPA [8]: Inact.; IC50 UK [9, 13]: Inact. |
